Test results published in PubChem BioAssay AID328 (DTP/NCI, 2004).
Values joined by “and” are separate entries in the source; they are usually repeats but may differ in a detail not shown here. Equal entries are not always repeated. Toxic doses and inconclusive results are not listed.

Tested on: BDF1 mice, P388 leukemia ip, median survival T/C
Assay: NCI In Vivo Anticancer Drug Screen. Data for tumor model P388 Leukemia (intraperitoneal) in B6D2F1 (BDF1) mice
Details: endpoint: median survival time, higher = longer survival
Summary of the method: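 Each value expresses how treatment altered survival: treated-mouse outcome over vehicle-mouse outcome, both groups bearing the transplanted tumour.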

[1] = dose: 50.0 mg/kg/injection, schedule: Q01DX009 (ip), vehicle: saline with Tween-80
[2] = dose: 100.0 mg/kg/injection, schedule: Q01DX009 (ip), vehicle: saline with Tween-80
[3] = dose: 200.0 mg/kg/injection, schedule: Q01DX009 (ip), vehicle: saline with Tween-80
[4] = dose: 2.0 mg/kg/injection, schedule: Q01DX009 (ip), vehicle: saline
[5] = dose: 25.0 mg/kg/injection, schedule: Q01DX009 (ip), vehicle: saline
[6] = dose: 100.0 mg/kg/injection, schedule: Q04DX003 (ip), vehicle: saline with Tween-80
[7] = dose: 200.0 mg/kg/injection, schedule: Q04DX003 (ip), vehicle: saline with Tween-80
[8] = dose: 25.0 mg/kg/injection, schedule: Q04DX003 (ip), vehicle: saline
[9] = dose: 50.0 mg/kg/injection, schedule: Q04DX003 (ip), vehicle: saline
[10] = dose: 100.0 mg/kg/injection, schedule: Q04DX003 (ip), vehicle: saline
[11] = dose: 6.25 mg/kg/injection, schedule: Q01DX009 (ip), vehicle: saline with Tween-80
[12] = dose: 12.5 mg/kg/injection, schedule: Q01DX009 (ip), vehicle: saline with Tween-80
[13] = dose: 25.0 mg/kg/injection, schedule: Q01DX009 (ip), vehicle: saline with Tween-80
[14] = dose: 50.0 mg/kg/injection, schedule: Q04DX003 (ip), vehicle: saline with Tween-80

In the case of `CCCN(CCC)CC(O)c1cc(C(F)(F)F)nc2c(C(F)(F)F)cccc12` (stereo not given), the T/C [1] was 103 % of control, the T/C [2] was 100 % of control and the T/C [3] was 97 % of control.

With `C=CC(=O)O` the T/C (dose: 0.2 mg/kg/injection, schedule: Q01DX001 (ip), vehicle: Klucel (hydroxypropylcellulose) (HPC)) was 95 % of control, the T/C (dose: 0.41 mg/kg/injection, schedule: Q01DX001 (ip), vehicle: Klucel (hydroxypropylcellulose) (HPC)) was 100 % of control and the T/C (dose: 0.82 mg/kg/injection, schedule: Q01DX001 (ip), vehicle: Klucel (hydroxypropylcellulose) (HPC)) was 104 % of control. The T/C (dose: 1.15 mg/kg/injection, schedule: Q04DX003 (ip), vehicle: Klucel (hydroxypropylcellulose) (HPC)) was 109 % of control, the T/C (dose: 1.65 mg/kg/injection, schedule: Q01DX001 (ip), vehicle: Klucel (hydroxypropylcellulose) (HPC)) was 115 % of control and the T/C (dose: 2.3 mg/kg/injection, schedule: Q04DX003 (ip), vehicle: Klucel (hydroxypropylcellulose) (HPC)) was 100 % of control. For the same molecule, the T/C (dose: 3.0 mg/kg/injection, schedule: Q01DX009 (ip), vehicle: saline) was 100 % of control, the T/C (dose: 3.0 mg/kg/injection, schedule: Q04DX003 (ip), vehicle: saline sonified) was 109 % of control and the T/C (dose: 4.0 mg/kg/injection, schedule: Q04DX003 (ip), vehicle: saline) was 116 % of control. For the same molecule, the T/C (dose: 4.6 mg/kg/injection, schedule: Q04DX003 (ip), vehicle: Klucel (hydroxypropylcellulose) (HPC)) was 100 % of control, the T/C (dose: 6.0 mg/kg/injection, schedule: Q01DX009 (ip), vehicle: saline) was 100 % of control and the T/C (dose: 6.0 mg/kg/injection, schedule: Q04DX003 (ip), vehicle: saline sonified) was 172 % of control. The T/C (dose: 6.6 mg/kg/injection, schedule: Q04DX003 (ip), vehicle: Klucel (hydroxypropylcellulose) (HPC)) was 109 % of control, the T/C (dose: 8.0 mg/kg/injection, schedule: Q04DX003 (ip), vehicle: saline) was 122 % of control and the T/C (dose: 12.0 mg/kg/injection, schedule: Q04DX003 (ip), vehicle: saline) was 122 % of control. For the same molecule, the T/C (dose: 18.0 mg/kg/injection, schedule: Q04DX003 (ip), vehicle: saline) was 122 % of control.

For `N.N.N.NC(Cc1cnc[nH]1)C(=O)[O-].O=[N+]([O-])[O-].[Co+3]` (stereo not given), the T/C [4] was 89 % of control, the T/C (dose: 4.0 mg/kg/injection, schedule: Q01DX009 (ip), vehicle: saline) was 95 % of control and 110 % of control and 113 % of control and the T/C (dose: 8.0 mg/kg/injection, schedule: Q01DX009 (ip), vehicle: saline) was 100 % of control and 110 % of control. The T/C (dose: 20.0 mg/kg/injection, schedule: Q01DX009 (ip), vehicle: saline) was 120 % of control and the T/C [5] was 90 % of control.

In the case of `COc1cc(C=O)ccc1OCc1ccccc1`, the T/C (dose: 1.0 mg/kg/injection, schedule: Q01DX009 (ip), vehicle: saline with Tween-80) was 109 % of control, the T/C (dose: 2.0 mg/kg/injection, schedule: Q01DX009 (ip), vehicle: saline with Tween-80) was 104 % of control and the T/C (dose: 4.0 mg/kg/injection, schedule: Q01DX009 (ip), vehicle: saline with Tween-80) was 104 % of control. For the same molecule, the T/C (dose: 8.0 mg/kg/injection, schedule: Q01DX009 (ip), vehicle: saline with Tween-80) was 92 % of control, the T/C [6] was 95 % of control and the T/C [7] was 109 % of control. For the same molecule, the T/C (dose: 400.0 mg/kg/injection, schedule: Q04DX003 (ip), vehicle: saline with Tween-80) was 109 % of control.

In the case of `C=C1C(=O)OC2C1CC/C(C)=C/CCC1(C)OC21` (stereo not given), the T/C (dose: 70.0 mg/kg/injection, schedule: Q01DX009 (ip), vehicle: Klucel (hydroxypropylcellulose) (HPC)) was 116 % of control.

With `NNC12CC3CC(CC(C3)C1)C2` the T/C (dose: 6.25 mg/kg/injection, schedule: Q01DX009 (ip), vehicle: saline) was 95 % of control, the T/C (dose: 6.25 mg/kg/injection, schedule: Q04DX003 (ip), vehicle: saline) was 102 % of control and the T/C (dose: 12.5 mg/kg/injection, schedule: Q01DX009 (ip), vehicle: saline) was 86 % of control. For the same molecule, the T/C (dose: 12.5 mg/kg/injection, schedule: Q04DX003 (ip), vehicle: saline) was 100 % of control, the T/C [5] was 86 % of control and the T/C [8] was 98 % of control. The T/C [9] was 115 % of control.

`CCOc1ccc2nc3cc(N)ccc3c(N)c2c1` was tested, and the T/C (dose: 44.0 mg/kg/injection, schedule: Q04DX003 (ip), vehicle: saline) was 118 % of control, the T/C (dose: 66.0 mg/kg/injection, schedule: Q04DX003 (ip), vehicle: saline) was 118 % of control and the T/C [10] was 118 % of control. For the same molecule, the T/C (dose: 200.0 mg/kg/injection, schedule: Q04DX003 (ip), vehicle: saline) was 117 % of control and the T/C (dose: 400.0 mg/kg/injection, schedule: Q04DX003 (ip), vehicle: saline) was 86 % of control.

`COc1ccc(/C=C2\NC(=O)NC2=O)cc1O` was tested, and the T/C [1] was 106 % of control, the T/C [2] was 101 % of control and the T/C [3] was 105 % of control.

For `CCOC(=O)/C=C(\C)SC1=CC(=O)c2ccccc2C1=O`, the T/C (dose: 3.13 mg/kg/injection, schedule: Q01DX009 (ip), vehicle: saline with Tween-80) was 102 % of control, the T/C [11] was 104 % of control and the T/C [12] was 112 % of control. For the same molecule, the T/C [13] was 104 % of control.

`C/C=C1/CC(C)C(C)(O)C(=O)OCC2CCN3CCC(OC1=O)C23` (stereo not given) was tested, and the T/C (dose: 25.0 mg/kg/injection, schedule: Q01DX010 (ip), vehicle: saline) was 111 % of control, the T/C (dose: 50.0 mg/kg/injection, schedule: Q01DX010 (ip), vehicle: saline) was 116 % of control and the T/C (dose: 100.0 mg/kg/injection, schedule: Q01DX010 (ip), vehicle: saline) was 116 % of control.

For `c1ccc(CNCCN(Cc2ccccc2)Cc2ccccc2)cc1`, the T/C (dose: 0.78 mg/kg/injection, schedule: Q01DX009 (ip), vehicle: water) was 105 % of control, the T/C (dose: 1.56 mg/kg/injection, schedule: Q01DX009 (ip), vehicle: water) was 106 % of control and the T/C (dose: 3.12 mg/kg/injection, schedule: Q01DX009 (ip), vehicle: water) was 99 % of control and 101 % of control. For the same molecule, the T/C (dose: 6.25 mg/kg/injection, schedule: Q01DX009 (ip), vehicle: water) was 93 % of control and 110 % of control, the T/C (dose: 12.5 mg/kg/injection, schedule: Q01DX009 (ip), vehicle: water) was 110 % of control and 115 % of control and the T/C (dose: 25.0 mg/kg/injection, schedule: Q01DX009 (ip), vehicle: water) was 101 % of control.

In the case of `Cc1c(CNc2ccc(C(=O)NC(CC(=O)O)CC(=O)O)cc2)ccc2nc(N)nc(N)c12`, the T/C (dose: 0.19 mg/kg/injection, schedule: Q01DX009 (ip), vehicle: saline) was 165 % of control, the T/C (dose: 0.37 mg/kg/injection, schedule: Q01DX009 (ip), vehicle: saline) was 215 % of control and the T/C (dose: 0.75 mg/kg/injection, schedule: Q01DX009 (ip), vehicle: saline) was 100 % of control. For the same molecule, the T/C (dose: 1.5 mg/kg/injection, schedule: Q01DX009 (ip), vehicle: saline) was 95 % of control and the T/C [4] was 110 % of control.

`CCOC1CC2c3ccccc3C1c1cccc[n+]12` (stereo not given) was tested, and the T/C (dose: 9.37 mg/kg/injection, schedule: Q01DX009 (ip), vehicle: saline) was 108 % of control, the T/C (dose: 18.75 mg/kg/injection, schedule: Q01DX009 (ip), vehicle: saline) was 108 % of control and the T/C (dose: 37.5 mg/kg/injection, schedule: Q01DX009 (ip), vehicle: saline) was 91 % of control.

For `O=C(NC(=O)c1c(F)cccc1F)Nc1ccc(Br)cn1`, the T/C [13] was 99 % of control, the T/C [1] was 92 % of control and the T/C [2] was 92 % of control.

In the case of `NC(CSC(c1ccccc1)(c1ccccc1)c1ccc(Br)cc1)C(=O)O` (stereo not given), the T/C (dose: 5.0 mg/kg/injection, schedule: Q04DX003 (ip), vehicle: Klucel (hydroxypropylcellulose) (HPC)) was 118 % of control, the T/C [11] was 190 % of control and the T/C [12] was 245 % of control. The T/C [13] was 270 % of control, the T/C [8] was 165 % of control and the T/C (dose: 30.0 mg/kg/injection, schedule: Q04DX003 (ip), vehicle: Klucel (hydroxypropylcellulose) (HPC)) was 154 % of control. The T/C (dose: 45.0 mg/kg/injection, schedule: Q04DX003 (ip), vehicle: other) was 166 % of control, the T/C [14] was 176 % of control and the T/C [9] was 204 % of control and 210 % of control. The T/C (dose: 65.0 mg/kg/injection, schedule: Q04DX003 (ip), vehicle: other) was 183 % of control, the T/C [2] was 100 % of control and the T/C (dose: 100.0 mg/kg/injection, schedule: Q04DX003 (ip), vehicle: other) was 170 % of control. For the same molecule, the T/C [6] was 185 % of control, the T/C [10] was 230 % of control and the T/C (dose: 150.0 mg/kg/injection, schedule: Q04DX003 (ip), vehicle: other) was 250 % of control. For the same molecule, the T/C [7] was 100 % of control.

In the case of `O=C(Nc1ccc(NC(=O)c2ccc(C3=NCCCN3)cc2)cc1)c1ccc(C2=NCCCN2)cc1`, the T/C (dose: 33.0 mg/kg/injection, schedule: Q04DX003 (ip), vehicle: saline with Tween-80) was 159 % of control, the T/C [14] was 153 % of control and 181 % of control and the T/C (dose: 75.0 mg/kg/injection, schedule: Q04DX003 (ip), vehicle: saline with Tween-80) was 168 % of control and 207 % of control.
